In general, IC50 refers to the midpoint of a concentration-inhibition curve.

From patent US10183941B2, “Pyrimidine or pyridopyridone compound and application thereof” (GUANGZHOU BEBETTER MEDICINE TECHNOLOGY CO., LTD., priority 2015, dated 2019) come the findings set out here.

Assay [1] relates to MDA-MB-231. Kind of assay: Tumor cell proliferation inhibition (CellTiter-Glo), MDA-MB-231. The class given is cell-based. The settings on record: Homo sapiens, 72 hours, 10% fetal bovine serum, read-out: MDA-MB-231 IC50 class. How it is done: The content of adenosine triphosphate (ATP) was determined using the CellTiter-Glo Luminescent Cell Viability Assay Kit (Promega, Madison, Wis.) to evaluate cell viability. Tumor cell lines (SW620, ZR-75-1, MDA-MB-231) were purchased from the Cell Resource Center of IBS, Fudan University, Shanghai and the American Type Culture Collection (ATCC). The cell density was determined using Scepter automated cell counter (Millipore # PHCC00000) after the cells were digested with pancreatin in cell culture dishes and resuspended in DPBS medium. The cells were diluted to a solution of 44,000 cells per ml. The cell solution of which density was adjusted was added into the cell assay plate at 90 microliters per well. The well plate was incubated in an incubator with 5% CO2 at 37° C. for 24 hours and then added with test compounds with different concentrations. The cells were incubated with the compounds in the presence of 10% fetal bovine serum for 72 hours. ATP content was assayed using the CellTiter-Glo® Luminescent Cell Viability Assay kit (see instructions of manufacturer) to assess cell growth inhibition. Briefly, 30 μl of CellTiter-Glo® reagent was added to each well, rocked for 10 minutes to induce cell lysis, and […] were detected and recorded with Fluoroskan Ascent FL (Thermo). The maximum signal value was obtained from the cells treated with dimethyl sulfoxide for 72 hours. The minimum signal value was obtained from the separate culture medium (cell number was zero). Inhibition rate %=(maximum signal value−compound signal value)/(maximum signal value−minimum signal value)×100. Data was processed using GraphPad Prism V5.0 (GraphPad Software, San Diego, Calif.) software. IC50 values were calculated by fitting S-shaped dose-response curves.

For assay [2], the system named is phosphorylation of Rb at Ser780 in MDA-MB-231 breast cancer cells. Description: Western Blot experiment, Rb phosphorylation. The settings on record: MDA-MB-231 cells, 16 hours incubation, FIG. 1. In kind it is cell-based. How it is done: MDA-MB-231 cells were grown in monolayer culture. […] The protein concentration was determined by the Branfor method. After being added with a loading buffer (Beyotime, # P0015L), the supernatant was boiled at 100° C. for 8 min, and the protein was separated by 8%-10% SDS-PAGE electrophoresis and then transferred to the PVDF membrane, and the membrane was blocked with 5% skimmed milk powder for 45 min, and then the cells were incubated overnight at 4° C. with primary antibody β-actin (CST, #4970), Rb (D20) Rabbit mAb (CST, #9313), Phospho-Rb(Ser780)(D59B7) Rabbit mAb (CST, #8180), and then the membrane was washed with TBST solution for 3×10 min. The cells were incubated in the dark at room temperature for 2 h with the fluorescent secondary antibody IRDye@680CW Goat (polyclonal) Anti-Rabbit 1gG (H+L), Highly Cross Adsorbed (LI-COR, #926-68071), and then the membrane was washed under the same condition above. Finally, the membrane was detected and imaged on a LI-COR Odyssey Infrared Fluorescence Scanning System, and the results are shown in FIG. 1.
CDK4/6 can make Rb protein lose the arrest on cell cycle by phosphorylating the tumor suppressor protein Rb protein. CDK4/6 inhibitor can prevent the inactivation of tumor suppressor protein Rb and thereby restore the arrest of Rb on cell cycle.
For orientation: A western blot detects proteins with antibodies after separation by electrophoresis.

In assay [3] the test system is MDA-MB-435 breast cancer cells. Kind of assay: Pharmacodynamic experiment, MDA-MB-435 xenograft. The class given is in vivo, mouse. How it is done:
MDA-MB-435 breast cancer cells were obtained from Shanghai Cell Bank of Chinese Academy of Sciences. Cryopreserved cells were thawed in a 37° C. water bath and then placed in RPMI 1640 medium supplemented with 10% fetal bovine serum (FBS), 1% insulin (Bioman Biotech, Shanghai) and incubated in 5% CO2 of Tissue Culture Incubator. […] The sign of successful transplantation was the formation of a round bulging lump under the skin. Tumor size can be measured approximately two weeks after implantation. The tumor size was measured by a caliper.

For the compound `CC(=O)c1c(C)c2cnc(Nc3ccc(C4CCN(CCS(C)(=O)=O)CC4)cn3)nc2n(C2CCCC2)c1=O` [Compound 1, 6-acetyl-8-cyclopentyl-5-methyl-2-((5-(1-(2-(methylsulfonyl)ethyl)piperidin-4-yl)pyridin-2-yl)amino)pyrido[2,3-d]pyrimidin-7(8H)-one], the IC50 in assay [1] lay within 100 to 500 nM. In addition, the “phosphorylation of Rb at Ser780 site” value in assay [2] is “effectively reduce”. Further, the T/C value in assay [3] (after 14 days of oral administration, PD-0332991 150 then 100 mg/kg once daily, Compound 1 75 mg/kg twice daily) is on record as 25%; in assay [3] (day 6 after discontinuation (D20)), 32%.
